Laboratory results published in patent US20200164026A1, “Intranasal Delivery of Cell Permeant Therapeutics” (The Trustees of Columbia University in the City of New York, priority 2010, published 2020).

Experiments:
[1] = tested on: rats subjected to tMCAo; assay: 24-point neurofunctional scale after 2 hr tMCAo, monitored for 21 days; assay type: in vivo, rat
Method: The efficacy of Pent-XBIR3 to prevent sensory-motor disability caused by stroke was tested by giving rats either a prophylatic (pre-occlusion) or therapeutic (4 hours post reperfusion) intranasal bolus of vehicle or Pent-XBIR3 (prepared and administerd as described in section 6.8, below). Rodents were assayed with a 24-point neurofunctional scale starting at 1 day post-ischemia with testing every other day for 3 weeks after the ischemic event.
Intranasal Delivery of Pen1-XBIR3. While under isofluorane anesthesia and lying on their backs, Pen1-XBIR3 (36.8 μM) was delivered to rats by administering 6 μl drops to alternating nares every two minutes for 20 minutes (60 μl total delivered). (Thorne, et al., Neuroscience 127 (2), 481-496 (2004)). Intranasal treatment was done prior to induction of stroke. Saline was used as a negative control. Brains were harvested for immunohistochemistry or western blotting.

[2] = tested on: cleaved caspase-6 (c1-C6) and caspase-9; assay: Pen1-XBIR3 delivered to the striatum (CED/ICC) prior to tMCAo; immunostaining for c1-C6 and caspase-9; assay type: in vivo, rat; conditions: delivered to striatum 1 hr prior to tMCAo, 24 hpr
From the text: (Davidson, et al., J Neurosci 24 (45), 10040-10046 (2004)). Upon entry into the cell the disulfide linkage is broken by the reducing environment of the cytoplasm, releasing the peptide cargo and allowing it to act at its target. Functional efficacy of this construct was confirmed using hippocampal neuronal cultures that were subjected to 4-hydroxynonenal (HNE) mediated death, a caspase-9 dependent death. (Rabacchi, et al., Neurobiol Aging 25 (8), 1057-1066 (2004)). […] To ensure that a Pen1-peptide could be delivered to the brain, Pen1 was linked to a FITC-labeled control peptide and delivered to the striatum using convection enhanced delivery (CED). Brains were harvested 24 hr after delivery, sectioned, and imaged. […] Pent-XBIR3 was delivered to the striatum 1 hr prior to tMCAo using ICC. Animals were harvested at 24 hpr and immunostained for caspase-9 and c1-C6. […]
Pen1-XBIR3. […] Linkage was assessed by 20% SDS-PAGE and western blotting with anti-His antibody. […]
Immunohistochemistry (IHC), Cell Process Quantification, and Statistical Analysis. […] Quantification of neurons and axons was accomplished using the Cell Counter plug-in for ImageJ (NIH). For quantification in the rat brain, 20x magnification images were acquired from the dorsal motor cortex and the […] somatosensory cortex forelimb region; both regions are contained are within the infarct penumbra (FIG. 1A). […]

With “Pen1-XBIR3: BIR3 domain from XIAP, a specific caspase-9 inhibitor, disulfide-linked to Penetratin1 cell transduction peptide (SEQ ID NO: 10)” the “neurofunctional score (stroke related disability)” value (from here on “neurofunctional score”) ([1]; prophylactic (pre-occlusion) intranasal bolus) was “less stroke related disability”, the “neurofunctional score” value ([1]; therapeutic (4 hours post reperfusion) intranasal bolus) was “functional recovery up to 21 d” and the “neurofunctional score” value ([1]; therapeutic (4 hours post reperfusion) intranasal bolus, listed as Pent-XBIR3) was “less stroke related disability”. The “caspase-9 and c1-C6 immunostaining in neuronal soma and processes” value [2] was “blocks the increase in caspase-9 and the induction of c1-C6” and the “caspase-9 and c1-C6 immunostaining in neuronal soma and processes” value ([2]; listed as Pent-XBIR3) was “inhibited appearance of c1-C6 and caspase-9”.
